# Experimental data as given in patent US20110020460A1, “GPR 119 MODULATORS” (Pfizer Inc., priority 2009, published 2011).
# pEC50, pKi: −log10 of the molar value. Where “and” joins values, the source holds several entries; their conditions need not be identical. Equal entries are not always repeated. Where two headings read alike, the source gives them in different places.
# Assays:
# human GPR119 [1] = target: T1, human GPR119 (Homo sapiens, UniProt Q8TDV5); experiment: GPR119 radioligand binding assay ([3H]-Compound A or [3H]-Compound B, HEK 293FT membranes); settings: Ki from IC50 by Cheng-Prusoff, one value per run
# T1 construct: host or cells: HEK293-CRE-beta-lactamase
# T1 sequence (Q8TDV5 1-335): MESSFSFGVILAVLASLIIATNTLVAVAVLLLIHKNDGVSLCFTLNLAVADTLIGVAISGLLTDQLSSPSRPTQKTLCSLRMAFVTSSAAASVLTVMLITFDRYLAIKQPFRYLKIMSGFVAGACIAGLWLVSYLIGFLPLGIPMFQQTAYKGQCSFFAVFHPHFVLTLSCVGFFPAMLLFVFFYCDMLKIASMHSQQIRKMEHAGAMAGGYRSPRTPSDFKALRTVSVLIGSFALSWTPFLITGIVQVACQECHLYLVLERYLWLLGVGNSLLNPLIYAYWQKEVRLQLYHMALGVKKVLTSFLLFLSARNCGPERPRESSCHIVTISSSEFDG
# Description: Cells were harvested via centrifugation (3,000×g, 10 minutes), washed once on DPBS (minus Ca++/Mg++), resuspended in 0.25M sucrose, 25 mM HEPES, 0.5 mM EDTA, pH 7.4 and frozen at −80 degrees Celsius.
# The frozen cells were thawed on ice and centrifuged at 700×g (1400 rpm) for 10 minutes at 4 degrees Celsius. The cell pellet was resuspended in 20 mL phosphate-buffered saline, and centrifuged at 1400 rpm for 10 minutes. […] Cells were then lysed with 15 gentle strokes of a tight-fitting glass Dounce homogenizer. The homogenate was centrifuged at 1000×g (2200 rpm) for 10 minutes at 4 degrees Celsius. The supernatant was transferred into fresh centrifuge tubes on ice. The cell pellet was resuspended in homogenization buffer, and centrifuged again at 1000×g (2200 rpm) for 10 minutes at 4 degrees Celsius after which the supernatant was removed and the pellet resuspended in homogenization buffer. […] The solution was then centrifuged at 25,000×g (15000 rpm) for 20 minutes at 4 degrees Celsius, the supernatant was discarded, and the pellet was resuspended in fresh homogenization buffer (minus Benzonase and MgCl2). After repeating the 25,000×g centrifugation step, the final membrane pellet was resuspended in homogenization buffer and frozen at −80 degrees Celsius.
# 2 microL of each dilution was added to appropriate wells of a 96-well plate (each concentration in triplicate).
# Membranes expressing GPR119 were thawed and diluted to a final concentration of 20 μg/100 microL per well in Binding Buffer, and 100 microL of diluted membranes were added to each well of 96-well plate.
# The plate was incubated for 60 minutes w/shaking at room temperature (approximately 25 degrees Celsius). […] Filters were then washed six times using washing buffer (50 mM Tris-HCl, pH 7.5 kept at 4 degrees Celsius). The filter plates were then air-dyed at room temperature overnight.
# IC50 determinations were made from competition curves, analyzed with a proprietary curve fitting program (SIGHTS) and a 4-parameter logistic dose response equation. Ki values were calculated from IC50 values, using the Cheng-Prusoff equation.
# human GPR119 [2] = target: T1, human GPR119; experiment: beta-lactamase reporter functional assay (hGPR119 HEK293-CRE beta-lactamase cells); type: cell-based; settings: one value per run; for pEC50: hGPR119 HEK293-CRE beta-lactamase cells, read-out: Human B-lactamase Functional EC50; for Intrinsic Activity* (B-lactamase) / Emax: percent of maximal activity relative to standard GPR119 agonist (WO2005121121) at 10 microM; for Emax: read-out: Intrinsic Activity* (B-lactamase)
# Description: The assay for GPR119 agonists utilizes a cell-based (hGPR119 HEK293-CRE beta-lactamase) reporter construct where agonist activation of human GPR119 is coupled to beta-lactamase production via a cyclic AMP response element (CRE). GPR119 activity is then measured utilizing a FRET-enabled beta-lactamase substrate, CCF4-AM (Live Blazer FRET-B/G Loading kit, Invitrogen cat #K1027). […] After 4 hours the plating medium was removed and replaced with 40 microL of assay medium (Assay medium is plating medium without potassium clavulanate and HIFBS). Varying concentrations of each compound to be tested was then added in a volume of 10 microL (final DMSO≦0.5%) and the cells were incubated for 16 hours at 37 degrees Celsius in a humidified environment containing 5% carbon dioxide. Plates were removed from the incubator and allowed to equilibrate to room temperature for approximately 15 minutes. 10 microL of 6×CCF4/AM working dye solution (prepared according to instructions in the Live Blazer FRET-B/G Loading kit, Invitrogen cat #K1027) was added per well and incubated at room temperature for 2 hours in the dark. Fluorescence was measured on an EnVision fluorimetric plate reader, excitation 405 nm, emission 460 nm/535 nm. EC50 determinations were made from agonist-response curves analyzed with a curve fitting program using a 4-parameter logistic dose-response equation.
# human GPR119 [3] = target: T1, human GPR119; experiment: cAMP HTRF functional assay (hGPR119 HEK-CRE beta-lactamase cells); type: cell-based; settings: for Emax: read-out: Intrinsic Activity* (cAMP)
# Description: GPR119 agonist activity was also determined with a cell-based assay utilizing an HTRF (Homogeneous Time-Resolved Fluorescence) cAMP detection kit (cAMP dynamic 2 Assay Kit; Cis Bio cat #62AM4PEC) that measures cAMP levels in the cell. The method is a competitive immunoassay between native cAMP produced by the cells and the cAMP labeled with the dye d2. The tracer binding is visualized by a Mab anti-cAMP labeled with Cryptate. The specific signal (i.e. energy transfer) is inversely proportional to the concentration of cAMP in either standard or sample.
# Following 30 minutes incubation at room temperature, 5 microL of labeled d2 cAMP and 5 microL of anti-cAMP antibody (both diluted 1:20 in cell lysis buffer; as described in the manufacturers assay protocol) were added to each well of the assay plate. […] Raw data were converted to nM cAMP by interpolation from a cAMP standard curve (as described in the manufacturer's assay protocol) and EC50 determinations were made from an agonist-response curves analyzed with a curve fitting program using a 4-parameter logistic dose response equation.
# [4] = hGPR119 HEK-CRE beta-lactamase cells, HTRF cAMP, one value per run
# [5] = percent of maximal activity relative to standard GPR119 agonist (WO2005121121) at 10 μM, one value per run
# [6] = **curve was extrapolated to 100% to calculate an EC50
SMILES,pKi (human GPR119 [1]; read-out: Human Binding Ki),pEC50 (human GPR119 [2]),Intrinsic Activity* (B-lactamase) (human GPR119 [2]),Emax (human GPR119 [2]),pEC50 (human GPR119 [3]; [4]),Intrinsic Activity* (cAMP) (human GPR119 [3]; [5]),Emax (human GPR119 [3]; [5]),pKi (human GPR119 [1]; Human Binding Ki),pEC50 (human GPR119 [3]; [6]),Emax (human GPR119 [3]; [6])
"CC(C)OC(=O)N1CCC(n2ncc(COc3ccc(S(=O)(=O)CCO)cc3F)c2C#N)CC1 [Example 1, Isopropyl 4-[5-cyano-4-({2-fluoro-4-[(2-hydroxyethyl)sulfonyl]-phenoxy}methyl)-1H-pyrazol-1-yl]piperidine-1-carboxylate]",7.33 and 7.35,7.17 and 6.91,101%,100%,6.66 and 6.74,37%,56%,–,–,–
"CC(C)OC(=O)N1CCC(n2ncc(COc3ccc(S(C)(=O)=O)cc3F)c2C#N)CC1 [Example 2, Isopropyl 4-(5-cyano-4-{[2-fluoro-4-(methylsulfonyl)phenoxy]methyl}-1H-pyrazol-1-yl)piperidine-1-carboxylate]",8.00 and 7.72 and 7.89 and 7.40,8.05 and 7.77,93% and 84%,100%,7.54 and 7.57,63%,60%,–,–,–
"CC(C)OC(=O)N1CCC(n2ncc(COc3ccc(-n4cnnn4)cc3)c2C#N)CC1 [Example 4, Isopropyl 4-(5-cyano-4-{[4-(1H-tetrazol-1-yl)phenoxy]methyl}-1H-pyrazol-1-yl)piperidine-1-carboxylate]",8.30,7.82 and 7.80,95%,97%,8.00 and 8.05,60%,80%,–,–,–
"Cc1ncccc1OCc1cnn(C2CCN(C(=O)OC(C)C)CC2)c1C#N [Example 5, Isopropyl 4-(5-cyano-4-{[(2-methylpyridin-3-yl)oxy]methyl}-1H-pyrazol-1-yl)piperidine-1-carboxylate]",6.03 and 5.77,6.60 and 6.64 and 6.40,88% and 104%,100%,6.35 and 6.19,34%,39%,–,–,–
"Cc1ncccc1NCc1cnn(C2CCN(C(=O)OC(C)C)CC2)c1C#N [Example 6, Isopropyl 4-(5-cyano-4-{[(2-methylpyridin-3-yl)amino]methyl}-1H-pyrazol-1-yl)piperidine-1-carboxylate]",< 5.21,8.22,–,31%,< 5.00,–,17%,–,–,–
"COP(=O)(OC)c1ccc(OCc2cnn(C3CCN(C(=O)OC(C)C)CC3)c2C#N)c(F)c1 [Example 7, Isopropyl 4-(5-cyano-4-{[4-(dimethoxyphosphoryl)-2-fluorophenoxy]methyl}-1H-pyrazol-1-yl)piperidine-1-carboxylate]",–,6.21,–,98%,6.65 and 6.59 and 6.77,74% and 85%,80%,6.53 and 6.55,–,–
"CC(C)OC(=O)N1CCC(n2ncc(CCc3ccc(S(C)(=O)=O)cc3F)c2C#N)CC1 [Example 9, Isopropyl 4-(5-cyano-4-{2-[2-fluoro-4-(methylsulfonyl)phenyl]ethyl}-1H-pyrazol-1-yl)piperidine-1-carboxylate]",7.46 and 7.38,7.25 and 7.05,93%,98%,–,–,–,–,–,–
"CC(C)OC(=O)N1CCC(n2ncc(CNc3ccc(S(C)(=O)=O)cc3F)c2C#N)CC1 [Example 10, Isopropyl 4-[5-cyano-4-({[2-fluoro-4-(methylsulfonyl)phenyl]amino}methyl)-1H-pyrazol-1-yl]piperidine-1-carboxylate]",7.55 and 7.52,7.47 and 7.42,94%,100%,7.06 and 7.01,57%,62%,–,–,–
"CC(C)OC(=O)N1CCC(n2ncc(COc3ccc(F)cc3F)c2C#N)CC1 [Example 11, Isopropyl 4-{5-cyano-4-[(2,4-difluorophenoxy)methyl]-1H-pyrazol-1-yl}piperidine-1-carboxylate]",6.28,6.11,–,98%,6.79 and 7.01 and 6.81,74% and 62%,61%,–,–,–
"CC(C)OC(=O)N1CCC(n2ncc(COc3ccc(-n4cccn4)cc3)c2C#N)CC1 [Example 18, Isopropyl 4-(4-((4-(1H-pyrazol-1-yl)phenoxy)methyl)-5-cyano-1H-pyrazol-1-yl)piperidine-1-carboxylate]",6.82,–,–,–,7.17 and 7.16,75%,80%,–,–,–
"CC(C)OC(=O)N1CCC(n2ncc(COc3ccc(-c4nnn(CCO)n4)cc3F)c2C#N)CC1 [Example 22, Isopropyl 4-(5-cyano-4-((2-fluoro-4-(2-(2-hydroxyethyl)-2H-tetrazol-5-yl)phenoxy)methyl)-1H-pyrazol-1-yl)piperidine-1-carboxylate]",6.80,–,–,–,6.83 and 6.79,–,29%,–,–,–
"CC(C)OC(=O)N1CCC(n2ncc(COc3ccc(-c4nnnn4CCO)cc3F)c2C#N)CC1 [Example 23, Isopropyl 4-(5-cyano-4-((2-fluoro-4-(1-(2-hydroxyethyl)-1H-tetrazol-5-yl)phenoxy)methyl)-1H-pyrazol-1-yl)piperidine-1-carboxylate]",6.82,–,–,–,–,–,–,–,5.79 and 5.83,100%
"Cn1nnnc1-c1ccc(OCc2cnn(C3CCN(C(=O)OC4(C)CC4)CC3)c2C#N)cc1 [Example 25, 1-Methylcyclopropyl 4-(5-cyano-4-{[4-(1-methyl-1H-tetrazol-5-yl)phenoxy]methyl}-1H-pyrazol-1-yl)piperidine-1-carboxylate]",6.38,–,–,–,7.24 and 6.95,88% and 114%,–,–,–,–
"CC1(OC(=O)N2CCC(n3ncc(COc4ccc(C(N)=O)c(F)c4)c3C#N)CC2)CC1 [Example 26, 1-Methylcyclopropyl 4-(4-((4-carbamoyl-3-fluorophenoxy)methyl)-5-cyano-1H-pyrazol-1-yl)piperidine-1-carboxylate]",–,–,–,–,6.60,–,62%,–,–,–
